Measurements from ChEMBL document CHEMBL1201862, “PubChem BioAssay data set” (2004).
Active and inactive are the calls of the source.

Columns and labels:
[1] = target: NAD-dependent protein deacylase sirtuin-5, mitochondrial (Homo sapiens, UniProt Q9NXA8); assay: SIRT5 deacylase inhibitors, dose response, biochemical, fluorescence imaging, cherry-pick, set 6 (AID 720597)
[2] = A375 melanoma cell viability loss, dose response, counter-screen for MITF inhibitor project, CellTiter-Glo luminescence, dry powder, set 4 (AID 624364); format: functional, cell-based; settings: A-375;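 note: A375 melanoma cells are MITF independent so this is a counter screen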
[3] = SK-MEL-5 parental cell viability reduction, dose response, orthogonal assay for MITF inhibitor project, CellTiter-Glo luminescence, dry powder, set 8 (AID 651586); format: functional, cell-based
[4] = MITF Measured in Cell-Based System Using Plate Reader - 2084-01_Inhibitor_Dose_DryPowder_Activity_Set6.; format: functional
[5] = MITF Orthogonal Assay: SK-MEL-5 CTG Assay Measured in Cell-Based System Using Plate Reader - 2084-02_Inhibitor_Dose_DryPowder_Activity_Set5.; format: functional
[6] = TRPM1 promoter luciferase reporter signal decrease, dose response, MITF inhibitor project, cell-based, SK-MEL-5, dry powder, set 9 (AID 651588); format: functional
[7] = MITF Measured in Cell-Based System Using Plate Reader - 2084-01_Inhibitor_Dose_DryPowder_Activity_Set7.; format: functional
[8] = Late stage results for the probe development effort to identify inhibitors of Plasmodium falciparum gametocytes: Luminescence-based cell-based high throughput dose response assay to identify inhibitors of viability of late stage Plasmodium falciparum gametocytes.; format: functional
[9] = P. falciparum Dd2 blood-stage growth inhibition, dose response, SYBR Green fluorescence, erythrocytes, dry powder, set 2 (AID 1159574); format: functional, cell-based
[10] = P. falciparum 3D7-ScDHODH growth inhibitors, dose response, SYBR Green, dry powder samples (AID 1159570); format: functional, cell-based;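 note: parasite growth measured after 72 hours of compound exposure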
[11] = P. falciparum ATP4 D1247Y mutant growth inhibitors, dose response, NITD609-resistant line, SYBR Green, dry powder (AID 1159571); format: functional, cell-based;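 note: parasites synchronized at ring stage by sorbitol before testing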
[12] = HepG2 cell cytotoxicity, dose response, cytotoxicity control, plate reader, dry powder samples (AID 1159569); format: functional, cell-based;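 note: inhibitor potency with signal falling toward the positive control level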
[13] = P. falciparum Dd2 growth inhibitors, dose response, SYBR Green, dry powder samples (AID 1159566); format: functional, cell-based;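 note: potency for growth inhibition with lower SYBR green DNA signal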
[14] = P. falciparum Dd2 growth inhibitors, dose response, SYBR Green, cherry-picked samples (AID 1159567); format: functional, cell-based
[15] = HepG2 cell cytotoxicity, dose response, cytotoxicity control, cherry-picked samples (AID 1159577); format: functional, cell-based
[16] = Dose-response inhibition of insulin secretion in a rat insulinoma line at 5 mM glucose (AID 1117331); format: functional, cell-based; settings: INS-1E
[17] = Glucagon-like peptide 1 release potency, NCI-H716 cell line, dose-response, half-maximal inhibitory concentration (AID 1117344); format: functional, cell-based
[18] = half-maximal inhibitory concentration for glucagon-like peptide-1 release, STC-1 cell line, dose-response (AID 1117345); format: functional, cell-based

Chain of NAD-dependent protein deacylase sirtuin-5, mitochondrial (Q9NXA8 whole entry): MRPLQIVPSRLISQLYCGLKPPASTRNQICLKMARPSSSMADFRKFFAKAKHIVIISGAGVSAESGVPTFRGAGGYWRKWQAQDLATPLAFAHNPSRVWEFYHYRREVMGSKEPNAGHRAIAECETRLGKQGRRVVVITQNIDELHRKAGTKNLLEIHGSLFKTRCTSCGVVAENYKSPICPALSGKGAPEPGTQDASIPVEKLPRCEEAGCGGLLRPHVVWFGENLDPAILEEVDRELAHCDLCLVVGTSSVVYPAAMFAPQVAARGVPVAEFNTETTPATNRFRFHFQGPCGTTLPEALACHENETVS

COCC(=O)Nc1ccc2c(c1)OC[C@@H](C)N(CCc1ccccc1)C[C@@H](C)[C@H](OC)CN(C)C2=O
AC50 [1]: > 30 µM (inactive)

NC1=C(NS(=O)(=O)c2ccc(Br)s2)C(=O)c2ccccc2C1=O
AC50 [2]: > 70 µM (inactive) | AC50 [3]: > 70 µM (inactive) | AC50 [4]: > 70 µM (inactive) | AC50 [5]: > 70 µM (inactive) | AC50 [6]: > 70 µM (inactive) | AC50 [7]: 65.8 µM (active)

Cc1ccc(-c2nn(-c3ccccc3)cc2C(=O)Nc2nccs2)cc1
IC50 [8]: > 74.4 µM (inactive)

COc1cccc(C#Cc2ccc([C@@H]3[C@H](CO)N4C(=O)CN(C(=O)Cc5ccccc5)C[C@@H]34)cc2)c1
AC50 [9]: > 20 µM (inactive)

C[C@@H]1CN([C@H](C)CO)S(=O)(=O)c2ccc(-c3ccncc3)cc2O[C@H]1CN(C)Cc1ccc(Oc2ccccc2)cc1
AC50 [10]: 0.573 µM (active) | AC50 [11]: 0.841 µM (active) | AC50 [12]: 50 µM (active) | AC50 [13]: 0.583 µM (active) | AC50 [14]: 1.51 µM (active)

Cc1cccc(S(=O)(=O)N2CCCCN3[C@@H](CO)[C@@H](c4ccc(-c5ccccc5)cc4)[C@@H]3C2)c1
AC50 [15]: 19.8 µM (active) | AC50 [14]: 1.26 µM (active)

Cn1cc([S+](C)[O-])c(=O)c2ccc(F)cc21 (centres undefined) [FLOSEQUINAN]
IC50 [16]: > 33.3 µM (inactive) | IC50 [17]: > 40 µM (inactive) | IC50 [18]: > 40 µM (inactive)
